These results are taken from patent US9399028B2, “Treatment of drug resistant cancer” (ROCKEFELLER UNIVERSITY (THE), priority 2012, dated 2016).

Entries after “also recorded” stand apart in the source; their conditions may differ. Counter-ions that a name gives are not always drawn.

Experiment [1] relates to human melanoma cells and endothelial cells. As to the kind of experiment: In vitro cell proliferation, viability and serum starvation survival. The format is cell-based. The conditions noted are these: for cell proliferation or cell viability rates: MeWo, HT-144, SK-Mel-334.2 cells, 1 μM, 5 days. The method, then: To determine the effects of miR-199a or miR-1908 over-expression and combinatorial LNA-induced miRNA inhibition on cell proliferation, 2.5×10^4 cells were seeded in triplicate in 6-well plates, and viable cells were counted after 5 days. […] Viable cells were counted after 8, 24, 48, 72, and 120 hours.
The number of viable cells was counter after 8, 16, and 24 hours.
To determine the effects of GW3965, T0901317, and Bexarotene on in vitro cell growth, 2.5×10^4 melanoma cells were seeded in triplicate in 6-well plates and cultured in the presence of DMSO, GW3965, T0901317, or Bexarotene at 1 μM each. After 5 days, the number of viable and dead cells was counted using the trypan blue dye (72-57-1, Sigma-Aldrich), which selectively labels dead cells.

Experiment [2] concerns human breast, pancreatic, renal, lung cancer and uveal melanoma cell lines. As to the kind of experiment: Trans-well matrigel invasion assay, other cancer types. The class given is cell-based. How it is done:
The ability of cancer cells to invade through matrigel in vitro was tested by using a trans-well matrigel invasion chamber system (354480, BD Biosciences). Various cancer cell lines were serum-starved overnight in media containing 0.2% FBS. The following day, invasion chambers were pre-equilibrated prior to the assay by adding 0.5 mL of starvation media to the top and bottom wells. Meanwhile, cancer cells were trypsinized and viable cells were counted using the trypan blue dead cell exclusion dye. Cancer cells were then resuspended at a concentration of 1×10^5 cells/1 mL starvation media, and 0.5 mL of cell suspension, containing 5×10^4 cells, was seeded into each trans-well. […] The basal side of each insert was imaged using an inverted fluorescence microscope (Zeiss Axiovert 40 CFL) at 5× magnification, and the number of DAPI-positive cells was quantified using ImageJ.
The cells were serum starved for 16 hours in 0.2% FBS media in the presence of DMSO or GW3965. […] Meanwhile, cancer cells were trypsinized and viable cells were counted using trypan blue. […] The basal side of each insert was imaged using an inverted fluorescence microscope (Zeiss Axiovert 40 CFL) at 5× magnification, and the number of DAPI-positive cells was quantified using ImageJ.

For another experiment, the system named is ApoE. As to the kind of experiment: Gene expression analysis by qRT-PCR in melanoma cells. The settings on record: 48 hours; for ApoE transcript expression: MeWo, HT-144, WM-266-4 human melanoma lines. The class given is cell-based, human. The method, then: Total RNA was extracted from various cell lines using the miRvana kit (AM1560, Applied Biosystems, Austin, Tex.). The expression levels of mature miRNAs were quantified using the Taqman miRNA expression assay (4427975-0002228, Applied Biosystems). RNU44 was used as an endogenous control for normalization. For mRNA expression analyses, 600 ng of total RNA was reverse transcribed using the cDNA First-Strand Synthesis Kit (18080-051, Invitrogen), and roughly 200 ng of the resulting cDNA was then mixed with SYBR green PCR Master Mix (4309155, Applied Biosystems) and the appropriate primers. Each reaction was performed in quadruplicate, and mRNA expression was quantified by performing real-time PCR amplification using an ABI Prism 7900HT Real-Time PCR System (Applied Biosystems). GAPDH was used as an endogenous control for normalization. The following primers were used: […]
RNA was extracted from whole cell lysates using the Total RNA Purification Kit (I 7200, Norgen, Thorold, Canada). 600 ng of total RNA was then reverse transcribed into cDNA using the cDNA First-Strand Synthesis Kit (18080-051, Invitrogen), and quantitative real-time PCR amplification was performed as previously described (Pencheva et al., 2012) using an ABI Prism 7900HT Real-Time PCR System (Applied Biosystems, Austin, Tex.). Each PCR reaction was carried out in quadruplicates. Gene expression was normalized to GAPDH, which was used as an endogenous control.
For every sample, 600 ng of RNA was reverse transcribed into cDNA using the cDNA First-Strand Synthesis kit (Invitrogen). Approximately 200 ng of cDNA was mixed with SYBR® green PCR Master Mix and the corresponding forward and reverse primers specific for detection of human ApoE. Each reaction was carried out in quadruplicates, and ApoE mRNA expression levels were measured by quantitative real-time PCR amplification using an ABI Prism 7900HT Real-Time PCR System (Applied Biosystems). The relative ApoE expression was determined using the ΔΔCt method. GAPDH was used as an endogenous control for normalization purposes.
A general note: In qPCR the cycle at which signal appears reflects the starting amount.

The mark [3] stands for this setting: MeWo-LM2 or endothelial cells, ApoE 100 μM.

On to `O=C(O)Cc1cccc(OCCCN(Cc2cccc(C(F)(F)F)c2Cl)CC(c2ccccc2)c2ccccc2)c1` [GW3965 2, 3-[3-[N-(2-Chloro-3-trifluoromethylbenzyl)-(2,2-diphenylethyl)amino]propyloxy]phenylacetic acid hydrochloride], for which the “cell proliferation or cell viability rates” value in experiment [1] was “did not affect”. Besides, in experiment [2] (RCC, PANC1, H460 cells, 1 μM for 72 hours), the “tumor cell invasion in renal, pancreatic and lung cancer cells” value is on record as “inhibition”. For the same compound, the ApoE transcript expression entry in the experiment with ApoE was “potently induce”. In the experiment on ApoE (parental MeWo cells), the “expression of ApoE” value is given as “increased” and the “expression of DNAJA4” value is “increased”.

As for `CC(CCOc1cccc(CC(=O)O)c1)N(Cc1cccc(C(F)(F)F)c1Cl)CC(c1ccccc1)c1ccccc1` (centres unmarked) [SB742881 25], the ApoE expression induction entry in the experiment on ApoE (MeWo cells, 500 nM, 1 μM or 2 μM) was “varied degrees of ApoE expression induction; also recorded: potently induce”.

Regarding `O=S(=O)(c1ccccc1)N(CC(F)(F)F)c1ccc(C(O)(C(F)(F)F)C(F)(F)F)cc1` [T0901317 1], in experiment [1], the “cell proliferation or cell viability rates” value is listed as “did not affect”. Moreover, the ApoE transcript expression entry in the experiment with ApoE is reported as “potently induce”.

For “recombinant human ApoE3: recombinant human ApoE3 (4696, BioVision)”, in experiment [1] (setting [3]), the “melanoma cell or endothelial cell in vitro proliferation” value was “did not affect” and the “survival in serum starvation conditions” value is “did not affect”. Besides, the “tumor cell invasion across breast, renal cell and pancreatic cancer” value in experiment [2] (recombinant ApoE3 100 μg/mL) was “inhibited”.
